Measured values reported in patent publication US20090149485A1, “PYRIMIDINEDIONES AS TYROSINE KINASE INHIBITORS” (Jubilant Biosys Limited, priority 2006, published 2009).

Columns and labels:
GSK3-beta = target: T1, GSK3-beta (Homo sapiens, UniProt P49841); test: GSK3-beta Kinase-Glo Plus luminescent kinase assay; format: biochemical; conditions: 10 μM compound; for inhibition at 10 µM: n=4, read-out: % Inhibition at 10 μM β
T1 construct: purchased Upstate 14-306
Method: To analyze the activity of the compounds, the said compounds were subjected to biochemical assays. The biochemical assays as performed by the undermentioned methods are used to evaluate the potency of the compounds. This potency data is the indication of the bioactivity of the organic compounds which are described as inhibitors of GSK3beta.
(§1) GSK3 assays were performed using Kinase-Glo® Plus Luminescent Kinase Assay Kit (Promega V3772/3/4 P), in assay buffer (50 mM HEPES, 30 mM Magnesium acetate, 1 mM EDTA and 1 mM EGTA, pH 7.5) in white 96-well-Optiplates (Perkin Elmer). In a typical assay reaction mix (40 μl final volume) contained 10 μl of test compound (dissolved in DMSO), 10 μl of GSM peptide substrate (Upstate Cat#12-533) 20M-GSK3-beta; 25 μM-GSK3-alpha were added followed by 10 μl of enzyme 40 ng/well-GSK3-beta (Upstate Cat#14-306); 30 ng/well-GSK3-alpha (Upstate Cat#14-492) and 1 μM ATP. After incubation at room temperature for 30 minutes, 40 μl of Kinase-Glo reagent was added to stop the reaction, followed by another 5 minutes incubation at room temperature. Luminescence was measured using Wallac 1450 MicroBeta® TriLux (PerkinElmer) Liquid Scintillation and Luminescence Counter. The activity is expressed as a difference of the consumed ATP and total ATP.

GSK3-alpha = target: T2, GSK3-alpha (Homo sapiens, UniProt P49840); test: GSK3-alpha Kinase-Glo Plus luminescent kinase assay; format: biochemical; conditions: 10 μM compound, n=3, read-out: % Inhibition at 10 μM α
T2 construct: purchased Upstate 14-492
Method: as §1

T2 sequence (P49840 whole entry): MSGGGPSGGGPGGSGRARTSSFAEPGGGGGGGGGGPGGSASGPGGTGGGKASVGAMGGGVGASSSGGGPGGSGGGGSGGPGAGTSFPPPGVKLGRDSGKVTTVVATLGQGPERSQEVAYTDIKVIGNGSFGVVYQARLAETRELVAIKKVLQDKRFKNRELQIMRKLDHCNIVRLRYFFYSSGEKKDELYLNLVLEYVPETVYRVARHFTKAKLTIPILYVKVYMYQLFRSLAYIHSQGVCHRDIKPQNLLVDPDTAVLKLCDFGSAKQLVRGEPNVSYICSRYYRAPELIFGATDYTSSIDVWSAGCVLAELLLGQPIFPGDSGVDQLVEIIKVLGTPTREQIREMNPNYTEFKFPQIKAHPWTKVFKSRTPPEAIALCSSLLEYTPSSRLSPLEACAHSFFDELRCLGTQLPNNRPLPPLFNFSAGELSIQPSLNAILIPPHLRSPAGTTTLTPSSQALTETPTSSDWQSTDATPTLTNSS
T1 sequence (P49841 whole entry): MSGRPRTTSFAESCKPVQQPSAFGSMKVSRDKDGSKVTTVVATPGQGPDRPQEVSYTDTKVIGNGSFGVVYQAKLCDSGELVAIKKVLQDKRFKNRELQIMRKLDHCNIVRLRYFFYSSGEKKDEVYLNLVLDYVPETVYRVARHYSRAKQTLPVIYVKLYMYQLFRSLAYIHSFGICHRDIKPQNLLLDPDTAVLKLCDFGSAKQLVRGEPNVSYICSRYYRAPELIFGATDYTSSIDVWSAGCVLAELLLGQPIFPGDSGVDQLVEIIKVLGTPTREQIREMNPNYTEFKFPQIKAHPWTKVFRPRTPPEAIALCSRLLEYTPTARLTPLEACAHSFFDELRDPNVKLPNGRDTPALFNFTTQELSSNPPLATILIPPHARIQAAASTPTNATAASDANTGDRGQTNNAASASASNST

In the case of `CCOC(=O)Cn1cc(-c2ccco2)c(=O)[nH]c1=O` [Compound 1, (2,4-Dioxo-5-furan-2-yl-3,4-dihydro-2H-pyrimidin-1-yl)-acetic Acid Ethyl Ester], the inhibition at 10 µM (GSK3-beta) is reported as 13% and the inhibition at 10 µM (GSK3-alpha) is reported as 9%.

For `CCOC(=O)Cn1cc(-c2cccs2)c(=O)[nH]c1=O` [Compound 2, (2,4-Dioxo-5-thiophen-2-yl-3,4-dihydro-2H-pyrimidin-1-yl)-acetic acid Ethyl Ester], the inhibition at 10 µM (GSK3-beta) was 77% and the inhibition at 10 µM (GSK3-alpha) was 68%.

With `O=c1[nH]c(=O)n(Cc2ccc(F)cc2)cc1-c1cccs1` [Compound 3, 1-(4-Fluoro-benzyl)-5-thiophen-2-yl-1H-pyrimidine-2,4-dione] the “% Inhibition at 10 μM β” value (GSK3-beta; n=4, 10 µM) was 68%, the inhibition at 10 µM (GSK3-beta) was 66% and the inhibition at 10 µM (GSK3-alpha) was 11%.

Work on `O=c1[nH]c(=O)n(Cc2ccc(F)cc2)cc1-c1ccco1` [Compound 4, 1-(4-Fluoro-benzyl)-5-furan-2-yl-1H-pyrimidine-2,4-dione] yielded an inhibition at 10 µM (GSK3-beta) of 56% and an inhibition at 10 µM (GSK3-alpha) of 72%.

Work on `N#Cc1ccc(Cn2cc(-c3ccco3)c(=O)[nH]c2=O)cc1` [Compound 5, 4-(2,4-Dioxo-5-furan-2-yl-3,4-dihydro-2H-pyrimidin-1-ylmethyl)-benzonitrile] yielded an inhibition at 10 µM (GSK3-beta) of 46% and an inhibition at 10 µM (GSK3-alpha) of 17%.

With `O=c1[nH]c(=O)n(Cc2ccccc2)cc1-c1cccs1` [Compound 6, 1-Benzyl-5-thiophen-2-yl-1H-pyrimidine-2,4-dione] the inhibition at 10 µM (GSK3-beta) was 45% and the inhibition at 10 µM (GSK3-alpha) was 10%.

Molecule `N#Cc1cccc(Cn2cc(-c3cccs3)c(=O)[nH]c2=O)c1` [Compound 7, 3-(2,4-dioxo-5-thiophen-2-yl-3,4-dihydro-2H-pyrimidin-1-ylmethyl)-benzonitrile] has an inhibition at 10 µM (GSK3-beta) of 45% and an inhibition at 10 µM (GSK3-alpha) of 16%.

`N#Cc1cccc(Cn2c(=O)[nH]cc(-c3cccs3)c2=O)c1` [Compound 8, 3-(2,6-Dioxo-5-thiophen-2-yl-3,6-dihydro-2H-pyrimidin-1-ylmethyl)-benzonitrile] gave an inhibition at 10 µM (GSK3-beta) of 78% and an inhibition at 10 µM (GSK3-alpha) of 54%.

For `N#Cc1cccc(Cn2c(=O)[nH]cc(-c3ccco3)c2=O)c1` [Compound 9, 3-(5-furan-2-yl-2,6-dioxo-3,6-dihydro-2H-pyrimidin-1-ylmethyl)-benzonitrile], the inhibition at 10 µM (GSK3-beta) was 64% and the inhibition at 10 µM (GSK3-alpha) was 22%.

Work on `O=c1[nH]cc(-c2cccs2)c(=O)n1Cc1ccc(F)cc1` [Compound 10, 3-(4-fluoro-benzyl)-5-thiophen-2-yl-1H-pyrimidine-2,4-dione] yielded an inhibition at 10 µM (GSK3-beta) of 13% and an inhibition at 10 µM (GSK3-alpha) of 6%.

`O=c1[nH]cc(-c2ccco2)c(=O)n1Cc1ccc(F)cc1` [Compound 11, 3-(4-fluoro-benzyl)-5-furan-2-yl-1H-pyrimidine-2,4-dione] was tested, and the inhibition at 10 µM (GSK3-beta) was 46% and the inhibition at 10 µM (GSK3-alpha) was 16%.

Molecule `O=c1[nH]cc(-c2ccco2)c(=O)n1Cc1ccc([N+](=O)[O-])cc1` [Compound 12, 3-(4-nitro-benzyl)-5-furan-2-yl-1H-pyrimidine-2,4-dione] has an inhibition at 10 µM (GSK3-beta) of 75% and an inhibition at 10 µM (GSK3-alpha) of 55%.

Molecule `CCOC(=O)Cn1c(=O)[nH]cc(-c2ccco2)c1=O` [Compound 13, (2,6-dioxo-5-furan-2-yl-3,6-dihydro-2H-pyrimidin-1-yl)-acetic Acid Ethyl Ester] has an inhibition at 10 µM (GSK3-beta) of 25% and an inhibition at 10 µM (GSK3-alpha) of 13%.

`O=c1[nH]cc(-c2ccco2)c(=O)n1Cc1ccccc1` [Compound 14, 3-benzyl-5-furan-2-yl-1H-pyrimidine-2,4-dione] showed an inhibition at 10 µM (GSK3-beta) of 63% and an inhibition at 10 µM (GSK3-alpha) of 42%.

Work on `N#Cc1ccc(Cn2c(=O)[nH]cc(-c3ccco3)c2=O)cc1` [Compound 15, 4-(2,6-dioxo-5-furan-2-yl-3,6-dihydro-2H-pyrimidin-1-ylmethyl)-benzonitrile] yielded an inhibition at 10 µM (GSK3-beta) of 21% and an inhibition at 10 µM (GSK3-alpha) of 14%.

`O=c1[nH]cc(-c2cccs2)c(=O)n1Cc1ccc([N+](=O)[O-])cc1` [Compound 17, 3-(4-nitro-benzyl)-5-thiophen-2-yl-1H-pyrimidine-2,4-dione] showed an inhibition at 10 µM (GSK3-beta) of 58% and an inhibition at 10 µM (GSK3-alpha) of 8%.

With `N#Cc1cccc(Cn2cc(-c3ccco3)c(=O)[nH]c2=O)c1` [Compound 18, 3-(5-furan-2-yl-2,4-dioxo-3,4-dihydro-2H-pyrimidin-1-ylmethyl)-benzonitrile] the inhibition at 10 µM (GSK3-beta) was 31% and the inhibition at 10 µM (GSK3-alpha) was 10%.

Work on `N#Cc1ccc(Cn2cc(-c3cccs3)c(=O)[nH]c2=O)cc1` [Compound 19, 4-(2,4-dioxo-5-thiophen-2-yl-3,4-dihydro-2H-pyrimidin-1-ylmethyl)-benzonitrile] yielded an inhibition at 10 µM (GSK3-beta) of 23% and an inhibition at 10 µM (GSK3-alpha) of 15%.

Molecule `O=c1[nH]cc(-c2ccco2)c(=O)n1Cc1cc(F)cc(F)c1` [Compound 20, 3-(3,5-difluoro-benzyl)-5-furan-2-yl-1H-pyrimidine-2,4-dione] has an inhibition at 10 µM (GSK3-beta) of 53% and an inhibition at 10 µM (GSK3-alpha) of 11%.
